Assay results reported in US7884135B2, “Modafinil-based treatment for premature ejaculation” (NeuroHealing Pharmaceuticals, Inc., priority 2006, dated 2011).

Tests used:
[1] = test system: ejaculation during sexual activity; assay: Delayed ejaculation with orally administered (tablet) racemic modafinil (Example 2, Subject 2); type: in vivo, human; conditions: 200 mg oral PROVIGIL tablet, hours after dosing
Description: Subject 2 took racemic modafinil (200 mg) in the form of an orally administrable tablet of PROVIGIL® (Cephalon) at 3:00 pm for the purpose of increasing alertness.

[2] = cited from earlier work
[3] = test system: ejaculation during sexual activity; assay: Delayed ejaculation with sublingually administered d-modafinil (Example 1, Subject 1); type: in vivo, human; conditions: 100 mg d-modafinil formulation sublingually
Description: The synthesized d-modafinil was compounded into a composition containing sugar, spearmint flavor, cinnamon flavor, gum arabic, gelatin, corn syrup, and dyes that could be administered sublingually. Formulations containing 100 mg of d-modafinil were prepared.
Subject 1 took the above-described formulation of d-modafinil sublingually at 9:00 pm in the course of testing a composition containing d-modafinil for a different effect unrelated to sexual activity.

mice = conditions: cited from earlier work
[4] = pharmacokinetic studies of modafinil in the human body (literature); type: in vivo; conditions: l-enantiomer versus d-enantiomer
Description: The optical enantiomers of modafinil have similar pharmacological actions in animals. […] Owing to the differences in half-life and rate of clearance of the individual enantiomers, the use of racemic modafinil results in differences in the circulating levels of the two enantiomers. […] After a single oral dose, racemic modafinil is readily absorbed, reaching maximum plasma concentrations at 2 hours to 4 hours after administration (see, e.g., Wong et al., J. Clin. Pharmacol., 39: 3040 (1999); Wong et al., J. Clin. Pharmacol., 39: 281-288 (1999); Robertson et al., Clin. Pharmacokinet., 42: 123-137 (2003); and Dinges et al., Curr. Medical Research and Opinions, 22: 159-169 (2006)).

SMILES | delay in ejaculation during sexual activity [1] | fraction of modafinil eliminated by the liver ([2]; humans, ingestion of PROVIGIL tablets, package insert) [%] | time to ejaculate during sexual activity, factor longer than usual ([3]; first administration) | time to ejaculate during sexual intercourse, factor of delay ([3]; second administration a week later) | pharmacological activity compared with the modafinil racemic compound (mice) | amount in the circulation relative to l-modafinil ([2]; after use of racemic modafinil) | elimination rate relative to l-modafinil ([2]; human, d-modafinil versus l-modafinil) | half-life relative to the d-enantiomer [4]
NC(=O)C[S+]([O-])C(c1ccccc1)c1ccccc1 (racemic) [modafinil, 2-[(diphenylmethyl)sulfinyl]acetamide] | experienced a delay in ejaculation | ≤ 90 |  |  |  |  |  | 
NC(=O)C[S@+]([O-])C(c1ccccc1)c1ccccc1 [d-modafinil, S-(+)-modafinil] |  |  | about two to three | about two to three | same pharmacological activity | three times less | three times faster | 
NC(=O)C[S@@+]([O-])C(c1ccccc1)c1ccccc1 [l-modafinil, R-(−)-modafinil, reference compound] |  |  |  |  | same pharmacological activity |  |  | approximately three-times longer
